Test results: patent US5354746A, “Squaric acid derivatives of substituted dibenzoxazepine compounds, pharmaceutical compositions and methods of use” (G. D. Searle & Co., priority 1993, dated 1994)
Where a name gives a salt, the structure may show the parent alone.

Columns and labels:
mice = test: Writhing Assay (PBQ-induced writhing, analgesic activity in mice); assay type: in vivo, mouse (Charles River male albino mice); conditions: for WRITHING ASSAY Number Out of Ten (number of mice out of ten in which a test compound produced analgesia): 30 mg per kilogram i.g., 30 min before PBQ i.p., writhes <= one-half median of saline control
Text: The Writhing Assay is one of the most widely-used experimental procedures for measuring the analgesic activity of different narcotic and nonnarcotic analgesic agents, and involves the continuous, chemically-induced pain of visceral origin to an animal, such as a mouse or rat. [Gyires et al., Arch. int. Pharmacodyn, 267, 131-140 (1984); […] al., Fed. Proc., 15, 494 (1956); Koster et al., Fed. Proc., 18, 412 (1959); and Witken et al., J. Pharmacol. exp. Ther., 133, 400-408 (1961).] Chemicals which may be used to induce this pain include phenylbenzoquinone (PBQ) and acetic acid. As a result of the chemical irritation to the animal, a characteristic stretching and writhing of the animal (dorsiflexion of the animal's back, extension of its hindlimbs and the strong contraction of its abdominal musculature) will generally occur. […] Drugs which reduce the number of writhes of the animal appear to restore the normal nociceptive threshold of the animal. […] Charles River male albino mice, weighing 20 to 30 grams, were used in this assay. Thirty minutes after intragastric administration to ten mice of 30 mg per kilogram of body weight of a compound of the present invention ("test compound"), […] of body weight of a 0.025% w/v solution of PBQ was injected intraperitoneally into each mouse. Ten mice which were given saline in place of a test compound of the invention were used as a control group. Five minutes later, each mouse was individually placed into a glass beaker for observation, and the number of writhes occurring during the following ten-minute period was counted. A test compound was considered to have produced analgesia in a mouse if, in accordance with the conditions set forth above, and under the test criteria employed for this assay, after the administration of 30 mg per kilogram of body weight of a compound of the present invention to the mouse, the number of writhes elicited by a mouse injected with PBQ was equal to, or less than, one-half the median number of writhes recorded for the saline-treated control group of mice that day, as described by Taber in "Predictive Value of Analgesic Assays in Mice and Rats," Advances in Biochemical Psychopharmacology, 8, 191 (1974). The results for the particular compounds of the present invention analyzed in this assay, and discussed in the examples identified below which correspond thereto, are presented in Table 1 hereinbelow as fractions under the heading "WRITHING ASSAY." The fractions indicate the number of mice out of ten in which a test compound produced analgesia. The standard initial screening dose of a test compound employed in this assay was […]. If this initial screening dose of the test compound produced analgesia in seven out of ten mice, then the effect of additional doses of the test compound on the writhing response was evaluated, and then the ED50 dose was generally calculated. (The slopes of the dose-response curves for all test compounds analyzed were compared as described by Tallarida and Murray, Manual of Pharmacologic Calculations, Page 11 (Springer Verlag, New York, 1981)). All ED50 doses calculated are also presented in Table 1 hereinbelow under the heading "WRITHING ASSAY," but as whole numbers.

[1] = test system: prostaglandin E2-induced contractions of segments of guinea pig ileum; test: Prostaglandin (PGE) Antagonism Assay (inhibition of prostaglandin E2-induced contractions of guinea pig ileum segments); conditions: ratio of prostaglandin E2 EC50 with/without test compound; initial concentration 3 micromolar; 30 min incubation; 37° C.; active if dose ratio >= 2
Procedure: In order to determine the effectiveness of several of the compounds of the present invention ("test compounds") as prostaglandin E2 antagonists,a prostaglandin antagonism assay was conducted, as described below, to determine the ability of these compounds to inhibit prostaglandin E2 -induced contractions of segments of guinea pig ileum. […] Male albino guinea pigs weighing 200 to 500 grams were sacrificed by cervical dislocation. The ilea were then quickly removed from the guinea pigs and placed in a modified Tyrode solution, a solution which is known to those skilled in the art, containing one-half of the usual amount of magnesium ions. Segments of ileum about 2 cm long were then cut and mounted in a 10 mL tissue bath containing the modified Tyrode solution. The solution was maintained at 37° C. and aerated with a gaseous mixture of 95% oxygen and 5% carbon dioxide. Data for a control prostaglandin E2 dose response curve plotting concentration of prostaglandin E2 versus the intensity of contractions, detected isotonically, was then obtained by experimentally adjusting the dose of the prostaglandin E2 being injected into the tissue bath, in a manner known by those of skill in the art. Solutions or suspensions containing an initial concentration (3 micromolar) of a test compound in modified Tyrode solution ("test solutions/suspensions") were then separately substituted for the control bath solution. Each test solution/suspension was then kept in constant contact with the ileum tissue, except for brief periods to drain the bath in preparation for rinsing with fresh test solution/suspension. A second prostaglandin E2 dose response curve was then generated for prostaglandin E2 in the presence of a test compound. A control dose response curve is produced in isolated segments of guinea pig ileum mounted in an automated apparatus with six concentrations of prostaglandin E2. A solution or suspension of test compound is substituted for the control bathing solution and is incubated for thirty minutes. An additional prostaglandin E2 dose response curve is then performed in the presence of the test compound. A dose ratio is calculated from the EC50 values obtained from duplicate replications on each concentration of the test compound. […] A dose ratio of EC50 doses was calculated from the results of each test in a manner known by those of skill in the art, and described above. A test compound was determined to be "active" if the initial concentration used yielded at least a two-fold shift (dose ratio greater than or equal to 2) in the dose response curve for prostaglandin E2. The compounds of the present invention which were tested in this assay, and for which results are presented in Table 1, correspond to the particular examples specified in Table 1.

Compound: O=c1c(N2Cc3ccccc3Oc3ccc(Cl)cc32)c(N2Cc3ccccc3Oc3ccc(Cl)cc32)c1=O [Example 8, 3,4-bis[8-chlorodibenz[b,f][1,4]oxazepin-10(11H) -yl]-3-cyclobutene-1,2-dione]
- WRITHING ASSAY Number Out of Ten (number of mice out of ten in which a test compound produced analgesia) (mice): 6/10
- PGE ANTAGONISM IN GUINEA PIG ILEUM Dose Ratio [1]: 1.9 ± 0.9

Compound: CN(C)CCNc1c(N2Cc3ccccc3Oc3ccc(Cl)cc32)c(=O)c1=O.Cl [Example 6, 3-(8-Chlorodibenz[b,f][1,4]oxazepin-10(11H)-yl)-4-[[2-(dimethylamino)ethyl]amino]-3-cyclobutene-1,2-dione, hydrochloride]
- WRITHING ASSAY Number Out of Ten (number of mice out of ten in which a test compound produced analgesia) (mice): 6/10
- PGE ANTAGONISM IN GUINEA PIG ILEUM Dose Ratio [1]: 6.8 ± 4.5

Compound: Cl.O=c1c(NCc2ccncc2)c(N2Cc3ccccc3Oc3ccc(Cl)cc32)c1=O [Example 7, 3-(8-Chlorodibenz[b,f][1,4]oxazepin-10(11H)-yl)-4-[(4-pyridinylmethyl)amino]-3-cyclobutene-1,2-dione, hydrochloride]
- ED50 (mice; Mus musculus, po, intragastric, PBQ i.p., dose producing analgesia in 50% of the animals, read-out: WRITHING ASSAY ED50 Dose I.G.): 9.7 mg/kg
- PGE ANTAGONISM IN GUINEA PIG ILEUM Dose Ratio [1]: 22 ± 5

Compound: CCOC(=O)C1CN(c2c(N3Cc4ccccc4Oc4ccc(Cl)cc43)c(=O)c2=O)CCN1c1ccccc1 (stereo not drawn) [Example 4, Ethyl 4-[2-(8-chlorodibenz[b,f][1,4]oxazepin-10(11H)-yl)-3,4-dioxo-1-cyclobuten-1-yl]-1-phenyl-2-piperazinecarboxylate]
- WRITHING ASSAY Number Out of Ten (number of mice out of ten in which a test compound produced analgesia) (mice): 4/10

Compound: CCN1CCN(c2c(N3Cc4ccccc4Oc4ccc(Cl)cc43)c(=O)c2=O)CC1 [Example 2, 3-(8-Chlorodibenz[b,f][1,4]oxazepin-10(! ! H)-yl)-4-(4-ethyl-1-piperazinyl)-3-cyclobutene-1,2-dione, monohydrochloride]
- WRITHING ASSAY Number Out of Ten (number of mice out of ten in which a test compound produced analgesia) (mice): 6/10
- PGE ANTAGONISM IN GUINEA PIG ILEUM Dose Ratio [1]: 5.0 ± 2.6
